# Measured values reported in patent US10517889B2, “Modulators of SMAD7 expression” (Ionis Pharmaceuticals, Inc., priority 2017, dated 2019).
# Several values for one entry are separate records, joined by “and”; a condition that tells them apart may be missing. Equal entries are not always repeated. Strand notation (5' to 3'): a small letter for the sugar, then the base; units joined by * are phosphorothioate-linked, units joined directly phosphodiester-linked; [ ] holds rarer units or linkages, { } end groups; capitals alone tell only the bases. e = 2'-O-(2-methoxyethyl) (MOE); [5mC] = 5-methylcytosine; d = 2'-deoxy (DNA)
# Columns and labels:
# human SMAD7 mRNA [1] = assay: Antisense inhibition of human SMAD7 mRNA expression in Hep3B cells by 5-10-5 MOE gapmers, single concentration, electroporation, RT-PCR (Example 1, Study 1 and 2); type: cell-based
# Outline: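 Hep3B cells (20,000/well) electroporated with 5-10-5 MOE gapmer at 5,000 nM or 15,000 nM for approximately 24 h. SMAD7 mRNA quantified by real-time PCR with primer probe set RTS5062 and normalized to RIBOGREEN total RNA. Values are percent inhibition relative to untreated controls.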
# human SMAD7 mRNA [2] = assay: Dose-dependent inhibition of human SMAD7 mRNA expression in Hep3B cells (Example 3, Study 1 and 2); type: cell-based; details: electroporation; for % inhibition of SMAD7 mRNA expression: approximately 16 hours; for IC50: Study 1 (312.5-20000 nM)
# Outline: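 Hep3B cells, 20,000 per well, electroporated with antisense oligonucleotide at 0.31, 1.25, 5.00 or 20.00 μM (first series) or 0.74, 2.22, 6.67 or 20.00 μM (second series). After ~16 h, SMAD7 mRNA measured by RT-qPCR (RTS5062), normalised to RIBOGREEN total RNA. Percent inhibition vs untreated cells; IC50 derived.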
# [3] = Study 2, electroporation with 15,000 nM antisense oligonucleotide, 5-10-5 MOE gapmers targeting SEQ ID NO: 1 and 2
# [4] = 312.5 nM, Study 1, relative to untreated control cells
# [5] = electroporation, 15,000 nM antisense oligonucleotide (Study 2), 5-10-5 MOE gapmers targeting SEQ ID NO: 1 and 2
Substance,% inhibition of SMAD7 mRNA expression (human SMAD7 mRNA [1]; [3]) [%],% inhibition of SMAD7 mRNA expression (human SMAD7 mRNA [2]; [4]) [%],"% inhibition of SMAD7 mRNA expression (human SMAD7 mRNA [2]; 1250.0 nM, Study 1) [%]","% inhibition of SMAD7 mRNA expression (human SMAD7 mRNA [2]; 5000.0 nM, Study 1) [%]","% inhibition of SMAD7 mRNA expression (human SMAD7 mRNA [2]; 20000.0 nM, Study 1) [%]",IC50 (human SMAD7 mRNA [2]),% Inhibition (human SMAD7 mRNA [1]; [3]) [%],"% Inhibition of SMAD7 mRNA (human SMAD7 mRNA [1]; electroporation with 15,000 nM antisense oligonucleotide (Study 2), 5-10-5 MOE gapmers targeting SEQ ID NO: 1 and 2) [%]",% inhibition of SMAD7 mRNA expression (human SMAD7 mRNA [1]; [5]) [%],"% inhibition of SMAD7 mRNA expression (human SMAD7 mRNA [1]; electroporation, 15,000 nM, approximately 24 hours, relative to untreated control cells, gapmers targeting SEQ ID NO: 1 and 2) [%]","% inhibition of SMAD7 mRNA expression (human SMAD7 mRNA [1]; electroporation, 15,000 nM, approximately 24 hours, gapmers targeting SEQ ID NO: 3 and 4) [%]"
771479 (antisense eG*eG*eG*eA*eA*d[5mC]*dA*d[5mC]*d[5mC]*dT*dT*dG*dT*dG*dT*eA*e[5mC]*e[5mC]*eA*eA) [compound 771479],58,0,8,49,74,7 µM,–,–,–,–,–
771407 (antisense eA*eG*eG*eA*eG*d[5mC]*dG*dA*dA*d[5mC]*dA*dT*dG*dA*d[5mC]*e[5mC]*eT*e[5mC]*e[5mC]*eG) [compound 771407],–,17,0,30,46,> 20 µM,59,–,–,–,–
771670 (antisense eA*eG*eT*e[5mC]*e[5mC]*dT*dT*dT*d[5mC]*dT*d[5mC]*dT*d[5mC]*dT*d[5mC]*eA*eA*eA*eG*e[5mC]) [compound 771670],46,0,0,21,47,> 20 µM,–,–,–,–,–
771836 (antisense eT*eG*eT*eT*eG*dA*dG*dG*dA*d[5mC]*dT*d[5mC]*d[5mC]*d[5mC]*d[5mC]*eA*eG*e[5mC]*e[5mC]*eA) [compound 771836],–,6,25,22,41,> 20 µM,28,–,–,–,–
771552 (antisense e[5mC]*eT*eT*eG*eG*dA*dT*dT*dT*d[5mC]*dT*dG*d[5mC]*dT*dT*e[5mC]*e[5mC]*e[5mC]*e[5mC]*eT) [compound 771552],–,2,25,20,45,> 20 µM,–,53,28,–,–
771769 (antisense eG*eG*e[5mC]*eT*eG*dG*dG*dA*dA*dT*d[5mC]*dA*dG*dA*dA*e[5mC]*eT*eT*eG*eG) [compound 771769],–,10,0,3,53,> 20 µM,–,–,71,–,–
771742 (antisense eA*eG*eA*e[5mC]*eA*dG*dA*dT*d[5mC]*dT*d[5mC]*dT*dG*dA*dA*eG*eT*e[5mC]*eA*eG) [compound 771742],–,0,0,0,23,> 20 µM,44,–,–,–,–
771570 (antisense eT*eG*eG*eG*eA*d[5mC]*dT*dG*d[5mC]*dA*dA*dA*d[5mC]*d[5mC]*dT*e[5mC]*eT*e[5mC]*eT*eG) [compound 771570],–,0,0,43,48,> 20 µM,–,–,60,–,–
771573 (antisense eG*e[5mC]*eT*eT*eG*dG*dG*dA*d[5mC]*dT*dG*d[5mC]*dA*dA*dA*e[5mC]*e[5mC]*eT*e[5mC]*eT) [compound 771573],–,0,5,24,56,18 µM,–,–,–,65,–
771778 (antisense eT*eG*eA*eG*eT*dA*dA*dA*d[5mC]*dA*dA*dT*dA*d[5mC]*d[5mC]*e[5mC]*eT*e[5mC]*eA*eG) [compound 771778],–,48,0,37,55,> 20 µM,–,–,66,–,–
771416 (e[5mC]*e[5mC]*e[5mC]*e[5mC]*eA*dT*dG*d[5mC]*dG*d[5mC]*dT*d[5mC]*dG*dG*d[5mC]*eT*eG*eT*e[5mC]*e[5mC]; antisense) [compound 771416],–,0,3,19,35,> 20 µM,58,–,–,–,–
771636 (antisense e[5mC]*e[5mC]*eT*eT*eG*dG*dG*dT*dT*dA*dT*dG*dA*d[5mC]*dG*eG*eA*e[5mC]*e[5mC]*eA) [compound 771636],0,–,–,–,–,> 20 µM and 16 µM,–,–,–,–,–
771788 (antisense e[5mC]*e[5mC]*eA*eA*e[5mC]*dT*d[5mC]*dT*dG*dA*dA*d[5mC]*dG*dG*dA*eA*eA*eG*eA*eA) [compound 771788],–,1,0,0,0,> 20 µM,30,–,–,–,–
771820 (antisense eG*eG*eT*e[5mC]*eA*dA*dA*d[5mC]*dT*dT*dG*dT*dG*dG*dT*eA*eA*eA*eA*eT) [compound 771820],–,3,3,7,7,> 20 µM,29,–,–,–,–
771737 (antisense eT*e[5mC]*eA*eA*eA*dT*dG*dA*dA*d[5mC]*d[5mC]*d[5mC]*dT*dG*dG*eT*eT*eA*eT*eA) [compound 771737],–,0,2,0,16,–,–,–,57,–,–
771345 (antisense eA*e[5mC]*eA*eG*e[5mC]*dA*dT*d[5mC]*dT*dG*dG*dA*d[5mC]*dA*dG*eT*e[5mC]*eA*eG*eT) [compound 771345],–,6,19,49,69,6 µM,–,–,–,–,54
771572 (antisense e[5mC]*eT*eT*eG*eG*dG*dA*d[5mC]*dT*dG*d[5mC]*dA*dA*dA*d[5mC]*e[5mC]*eT*e[5mC]*eT*e[5mC]) [compound 771572],37,0,10,38,13,> 20 µM,–,–,–,–,–
771711 (antisense e[5mC]*eG*e[5mC]*eA*e[5mC]*dT*dT*d[5mC]*dA*d[5mC]*dA*dG*dT*dT*d[5mC]*eA*e[5mC]*eA*eG*eG) [compound 771711],–,17,25,27,59,18 µM,57,–,–,–,–
771418 (e[5mC]*e[5mC]*eG*e[5mC]*e[5mC]*dA*d[5mC]*d[5mC]*dG*dG*d[5mC]*d[5mC]*d[5mC]*d[5mC]*dA*eT*eG*e[5mC]*eG*e[5mC]; antisense) [compound 771418],–,3,0,0,0,–,–,–,60,–,–
